The text below walks through data of patent publication US20260184721A2, “FUSED RING COMPOUND, CONJUGATE THEREOF AND USE THEREOF” (Keymed Biosciences (Chengdu) Co., Ltd., priority 2022, published 2026).

SMILES strings stand for the structures.

The first assay relates to NCI-N87 tumor cells. Description: In vitro proliferation inhibitory activity of compounds of Formula (GH) on NCI-N87 tumor cells (CCK8). In kind it is cell-based, human. Conditions: 6 days of culture, CCK8; read-out: IC50 for inhibiting proliferation of NCI-N87 cells in vitro. As for the experimental part: The objective of this experiment is to detect the in vitro killing activity of the compound of Formula (GH) disclosed in the present invention on NCI-N87 tumor cells (human gastric cancer cells, Cell Resource Center, Institute of Basic Medicine, Chinese Academy of Medical Sciences, Catalog No. 3111C0001CCC000481). The cells were treated with different concentrations of the compound in vitro, and after 6 days of culture, the number of viable cells was detected using CCK8 (Cell Counting Kit-8, Catalog No. TS547) reagents, and the in vitro activity of the test compound was evaluated according to the IC50 value.
• (1) Cell culture: NCI-N87 cells were cultured in the RPMI 1640 medium containing 2% FBS (Shanghai BasalMedia Technologies Co., Ltd., Catalog No. L210KJ). • (2) Cell preparation: NCI-N87 cells in the logarithmic growth phase were taken, washed once with PBS (phosphate buffered saline, Shanghai BasalMedia Technologies Co., Ltd., Catalog No. E211004), added with 1 mL of trypsin (0.25% Trypsin-EDTA (1×), Shanghai BasalMedia Technologies Co., Ltd., Catalog No. A121002) to allow digestion for 2 to 3 minutes. After the cells were completely digested, 10 mL of the cell culture medium was added to wash off and obtain the digested cells, centrifugation was performed at 300 times gravitational acceleration (g) for 5 min, the supernatant was discarded, then 10 mL of PBS was added to wash the cells once, centrifugation was performed at 300 times gravitational acceleration (g) for 5 minutes, the supernatant was discarded, and 10 mL of the cell culture medium containing 2% FBS was added to resuspend the cells to prepare a single cell suspension. • (3) Cell plating: The NCI-N87 single cell suspension was mixed, the density of live cells was adjusted to 3×10^4 cells/mL with 2% FBS cell culture medium, the cell suspension after density adjustment was mixed well, and added to a 96-well cell culture plate at 100 μL/well. Only 200 μL of PBS was added to each of the peripheral wells of the 96-well plate. The plate was incubated in an incubator for 24 hours (37° C., 5% CO2). • (4) Preparation of sample to be tested:
The sample to be tested was diluted to 3200 nM with cell culture medium containing 2% FBS, then 300 μL of the sample was added to the first well of a 96-well U-bottomed plate with a sample concentration of 3200 nM; and 210 μL of cell culture medium containing 2% FBS was added to each well of the second to tenth columns. 70 μL of the sample was taken from the first column and added to the 210 μL cell culture medium in the second column and mixed well, 70 μL was taken and added to the third column, and so on to the ninth column. • (5) Sample loading operation: 100 μL of the sample to be tested with different concentrations was added to the culture plate, two replicate wells were set for each sample. The culture plate was incubated in an incubator for 6 days (37° C., 5% CO2). • (6) Color development operation: The 96-well cell culture plate was taken out, the supernatant of the culture medium was removed by tapping, 100 μL of 10% CCK8 (prepared with RPMI 1640 basal culture medium, without FBS) solution was added to each well, and incubation was performed in an incubator for 2 hours. • (7) Plate reading operation: The 96-well cell culture plate was taken out, placed in an ELISA reader (SpectraMax i3X), and A450 was determined by the ELISA reader. • (8) Data analysis: Microsoft Excel and Graphpad Prism 5 were used to process and analyze the data.
In the case of `CC[C@@]1(O)C(=O)OCc2c1cc1n(c2=O)Cc2c-1nc1cc(F)c(C)c3c1c2[C@@H](NC(=O)CO)CC3` [Dxd, reference compound], the IC50 worked out at 10.2 nM.

The assay is the same for the next values; noted with them: Homo sapiens, NCI-N87; 6 days of culture, CCK8; read-out: IC50 for inhibiting proliferation of NCI-N87 cells in vitro.
Take `Cc1c(F)cc2nc3c(c4c2c1CC[C@@H]4NC(=O)CO)Cn1c-3cc2c(c1=O)COC(=O)[C@]2(O)CC1CC1` [Compound 1-B, N-((1S,9S)-9-(cyclopropylmethyl)-5-fluoro-9-hydroxy-4-methyl-10,13-dioxo-2,3,9,10,13,15-hexahydro-1H,12H-benzo[de]pyrano[3′,4′:6,7]indolizino[1,2-b]quinolin-1-yl)-2-hydroxyacetamide]: the IC50 came to 5.36 nM.
On the same count and under the same terms, in the case of `Cc1c(F)cc2nc3c(c4c2c1CC[C@@H]4NC(=O)[C@H](C)O)Cn1c-3cc2c(c1=O)COC(=O)[C@]2(O)CC1CC1` [Compound 2-A, (S)-N-((1S,9S)-9-(Cyclopropylmethyl)-5-fluoro-9-hydroxy-4-methyl-10,13-dioxo-2,3,9,10,13,15-hexahydro-1H,12H-benzo[de]pyrano[3′,4′:6,7]indolizino[1,2-b]quinolin-1-yl)-2-hydroxypropanamide] it was 1.92 nM.

For the next assay, the system named is SK-BR-3 tumor cells. As to the kind of experiment: In vitro proliferation inhibitory activity of compounds of Formula (GH) on SK-BR-3 tumor cells (CCK8). As to conditions: Homo sapiens, SK-BR-3, 72 h, 3 days of culture, read-out: IC50 for inhibiting proliferation of SK-BR-3 cells in vitro. In kind it is cell-based. On the procedure: The objective of this experiment is to detect the in vitro killing activity of the compound of Formula (GH) of the present disclosure on SK-BR-3 tumor cells (human breast cancer cells, Wuhan Procell, Catalog No. CL-0211). The cells were treated with different concentrations of the compound in vitro. After 3 days of culture, the number of viable cells was detected using CCK8 (Cell Counting Kit-8, Catalog No. TS547) reagents, and the in vitro activity of the test compound was evaluated according to the IC50 value.
Taking the test method of in vitro killing activity on SK-BR-3 cells as an example, the following test was performed. […] After the cells were completely digested, 10 mL of cell culture medium containing 2% FBS was added to wash out the digested cells, centrifugation was performed at 300 g for 5 min, the supernatant was discarded, and then 10 to 20 mL of cell culture medium containing 2% FBS was added to resuspend the cells to prepare a single cell suspension. • (3) Cell plating: The SK-BR-3 single cell suspension was mixed well, the viable cell density was adjusted to 6×10^4 cells/mL with the cell culture medium containing 2% FBS, the cell suspension after density adjustment was mixed well, and added to a 96-well cell culture plate at 100 μL/well. Only 200 μL of PBS was added to the peripheral wells of the 96-well plate. The culture plate was incubated in an incubator for 24 hours (37° C., 5% CO2). • (4) Compound preparation: The compound was dissolved in DMSO (dimethyl sulfoxide, SIGMA) to prepare a 2 mM stock solution.
The starting concentrations of small molecule compounds and Dxd were both 600 nM, and the preparation method was as follows.
Then, 315 μL of different samples to be tested were added to the first column of a 96-well U-bottomed drug distribution plate, and the sample concentration was 1200 nM; 210 μL of the cell culture medium containing 2% FBS was added to each well of the second to tenth columns. 105 μL of the sample was taken from the first column and added to the 210 μL cell culture medium in the second column and mixed well, and 105 μL was taken and added to the third column, and so on to the tenth column. • (5) Sample loading operation: 100 μL of the sample to be tested of different concentrations was added to the culture plate, and two replicate wells were set for each sample. The culture plate was incubated in an incubator for 3 days (37° C., 5% CO2). • (6) Color development operation: The 96-well cell culture plate was taken out, the cell culture supernatant was removed by tapping, 100 μL of the RPMI 1640 basal medium (without FBS) containing 10% CCK8 was added, and then it was incubated in an incubator for about 1.5 hours (37° C., 5% CO2). • (7) Plate reading operation: The 96-well cell culture plate was taken out, placed in an ELISA reader (MD SpectraMax i3X), and A450 was determined by the ELISA reader. • (8) Data analysis: Microsoft Excel and Graphpad Prism 5 were used to process and analyze the data.
Regarding `Cc1c(F)cc2nc3c(c4c2c1CC[C@H]4NC(=O)CO)Cn1c-3cc2c(c1=O)COC(=O)[C@]2(O)CC1CC1` [Compound 1-A, N-((1R,9S)-9-(cyclopropylmethyl)-5-fluoro-9-hydroxy-4-methyl-10,13-dioxo-2,3,9,10,13,15-hexahydro-1H,12H-benzo[de]pyrano[3′,4′:6,7]indolizino[1,2-b]quinolin-1-yl)-2-hydroxyacetamide], the IC50 amounted to 0.93 nM.
Turning to `Cc1c(F)cc2nc3c(c4c2c1CC[C@@H]4NC(=O)CO)Cn1c-3cc2c(c1=O)COC(=O)[C@]2(O)CC1CC1` [Compound 1-B, N-((1S,9S)-9-(cyclopropylmethyl)-5-fluoro-9-hydroxy-4-methyl-10,13-dioxo-2,3,9,10,13,15-hexahydro-1H,12H-benzo[de]pyrano[3′,4′:6,7]indolizino[1,2-b]quinolin-1-yl)-2-hydroxyacetamide], the IC50 came to 1.94 nM.
As to `Cc1c(F)cc2nc3c(c4c2c1CC[C@@H]4NC(=O)[C@H](C)O)Cn1c-3cc2c(c1=O)COC(=O)[C@]2(O)CC1CC1` [Compound 2-A, (S)-N-((1S,9S)-9-(Cyclopropylmethyl)-5-fluoro-9-hydroxy-4-methyl-10,13-dioxo-2,3,9,10,13,15-hexahydro-1H,12H-benzo[de]pyrano[3′,4′:6,7]indolizino[1,2-b]quinolin-1-yl)-2-hydroxypropanamide], the IC50 is 5.88 nM.
On to `Cc1c(F)cc2nc3c(c4c2c1CC[C@H]4NC(=O)[C@H](C)O)Cn1c-3cc2c(c1=O)COC(=O)[C@]2(O)CC1CC1` [Compound 2-B, (S)-N-((1R,9S)-9-(Cyclopropylmethyl)-5-fluoro-9-hydroxy-4-methyl-10,13-dioxo-2,3,9,10,13,15-hexahydro-1H,12H-benzo[de]pyrano[3′,4′:6,7]indolizino[1,2-b]quinolin-1-yl)-2-hydroxypropanamide], for which the IC50 amounted to 12 nM.
In the case of `Cc1c(F)cc2nc3c(c4c2c1CC[C@H]4NC(=O)[C@@H](C)O)Cn1c-3cc2c(c1=O)COC(=O)[C@]2(O)CC1CC1` [Compound 3-B, (R)-N-((1R,9S)-9-(cyclopropylmethyl)-5-fluoro-9-hydroxy-4-methyl-10,13-dioxo-2,3,9,10,13,15-hexahydro-1H,12H-benzo[de]pyrano[3′,4′:6,7]indolizino[1,2-b]quinolin-1-yl)-2-hydroxypropanamide], the IC50 was determined as 2.36 nM.
As to `Cc1c(F)cc2nc3c(c4c2c1CC[C@H]4NC(=O)[C@@H](O)C1CC1)Cn1c-3cc2c(c1=O)COC(=O)[C@]2(O)CC1CC1` [Compound 4-B, (S)-2-cyclopropyl-N-((1R,9S)-9-(cyclopropylmethyl)-5-fluoro-9-hydroxy-4-methyl-10,13-dioxo-2,3,9,10,13,15-hexahydro-1H,12H-benzo[de]pyrano[3′,4′:6,7]indolizino[1,2-b]quinolin-1-yl)-2-hydroxyacetamide], the IC50 is 5.01 nM.
For the compound `Cc1c(F)cc2nc3c(c4c2c1CC[C@@H]4NC(=O)[C@H](O)C1CC1)Cn1c-3cc2c(c1=O)COC(=O)[C@]2(O)CC1CC1` [Compound 5-A, (R)-2-Cyclopropyl-N-((1S,9S)-9-(cyclopropylmethyl)-5-fluoro-9-hydroxy-4-methyl-10,13-dioxo-2,3,9,10,13,15-hexahydro-1H,12H-benzo[de]pyrano[3′,4′:6,7]indolizino[1,2-b]quinolin-1-yl)-2-hydroxyacetamide], the IC50 stood at 9.27 nM.
With `CC[C@@]1(O)C(=O)OCc2c1cc1n(c2=O)Cc2c-1nc1cc(F)c3c(c1c2CNC(=O)CO)CCC3` [Compound 24, (S)-N-((8-ethyl-4-fluoro-8-hydroxy-9,12-dioxo-2,3,8,9,12,14-hexahydro-1H,11H-cyclopenta[f]pyrano[3′,4′:6,7]indolizino[1,2-b]quinolin-15-yl)methyl)-2-hydroxyacetamide], the IC50 was determined as 5.79 nM.
Turning to `CC[C@@]1(O)C(=O)OCc2c1cc1n(c2=O)Cc2c-1nc1cc(F)c3c(c1c2CNC(=O)[C@@H](C)O)CCC3` [Compound 26, (R)-N-(((S)-8-Ethyl-4-fluoro-8-hydroxy-9,12-dioxo-2,3,8,9,12,14-hexahydro-1H,11H-cyclopenta[f]pyrano[3′,4′:6,7]indolizino[1,2-b]quinolin-15-yl)methyl)-2-hydroxypropanamide], the IC50 is 8.39 nM.
Still for that read-out and setting: in the case of `CC[C@@]1(O)C(=O)OCc2c1cc1n(c2=O)Cc2c-1nc1cc(F)c3c(c1c2CNC(=O)[C@@H](O)C1CC1)CCC3` [Compound 27, (S)-2-Cyclopropyl-N-(((S)-8-ethyl-4-fluoro-8-hydroxy-9,12-dioxo-2,3,8,9,12,14-hexahydro-1H,11H-cyclopenta[f]pyrano[3′,4′:6,7]indolizino[1,2-b]quinolin-15-yl)methyl)-2-hydroxyacetamide] it was 13.9 nM.
On the same count and under the same terms, to `CC[C@@]1(O)C(=O)OCc2c1cc1n(c2=O)Cc2c-1nc1cc(F)c3c(c1c2CNC(=O)[C@H](O)C1CC1)CCC3` [Compound 28, (R)-2-Cyclopropyl-N-(((S)-8-ethyl-4-fluoro-8-hydroxy-9,12-dioxo-2,3,8,9,12,14-hexahydro-1H,11H-cyclopenta[f]pyrano[3′,4′:6,7]indolizino[1,2-b]quinolin-15-yl)methyl)-2-hydroxyacetamide] belongs 15.1 nM.
